Experimental data published in BindingDB's records for doi:10.1016/j.bmcl.2004.02.025 (Universidade Federal De Minas Gerais, 2004).

How the values were obtained:
[1] = Inhibitory concentration of compound against glyceraldehyde-3-phosphate dehydrogenase was determined
[2] = Inhibitory concentration against glyceraldehyde-3-phosphate dehydrogenase was determined as log 1/IC50
[3] = as above; remark: listed apart in the source

Row | IC50 [2] | SMILES | other results
1 | – | CCOC(=O)c1cn([C@@H]2O[C@H](COC(=O)c3ccccc3)[C@@H](OC(=O)c3ccccc3)[C@H]2OC(=O)c2ccccc2)c2ccc(Cl)cc2c1=O | IC50 [1]: 29 µM
2 | 123 µM | CC1(C)C=Cc2c(ccc3ccc(=O)oc23)O1 | –
3 | 56.2 µM | O=c1oc2ccc(/N=C/c3ccco3)cc2cc1-c1ccc2c(c1)OCO2 | –
4 | 17 µM | CC(=O)Oc1cccc(-c2cc3cc(OC(C)=O)ccc3oc2=O)c1 | –
5 | 30.9 µM | O=c1oc2c(O)cccc2cc1-c1ccc2c(c1)OCO2 | –
6 | 67.6 µM | O=c1oc2ccccc2cc1-c1cccc(O)c1 | –
7 | 145 µM | C=C(C)[C@H]1Cc2cc3ccc(=O)oc3cc2O1 | –
8 | 191 µM | C=C(C)[C@@H]1Cc2c(cc(O)c3ccc(=O)oc23)O1 | –
9 | 64.6 µM | CC(=O)Oc1ccc2oc(=O)c(-c3ccc4c(c3)OCO4)cc2c1 | –
10 | 123 µM | CC(=O)Oc1ccc2oc(=O)c(-c3ccccc3)cc2c1 | –
11 | 129 µM | C=C(C)[C@H]1O[C@@H]1c1c(O)ccc2ccc(=O)oc12 | –
12 | 74.1 µM | CC1=C2c3c(ccc4ccc(=O)oc34)OCC2OC1=O (centres undefined) | –
13 | 52.5 µM | CC(=O)Oc1ccc(-c2cc3cc(OC(C)=O)ccc3oc2=O)cc1 | –
14 | 162 µM | C=CC(C)(C)c1cc2ccc(O)cc2oc1=O | –
15 | 85.1 µM | COc1cccc(-c2cc3cc(OC(C)=O)ccc3oc2=O)c1 | –
16 | 56.2 µM | O=c1oc2ccc(/N=C/c3ccc[nH]3)cc2cc1-c1ccc2c(c1)OCO2 | –
17 | 692 µM | O=c1ccc2ccccc2o1 [2H-chromen-2-one] | –
18 | 38.9 µM | O=c1oc2ccccc2cc1-c1ccc(O)cc1 [3-(4-Hydroxy-phenyl)-chromen-2-one] | –
19 | 257 µM | COc1cc2ccc(=O)oc2cc1O [7-hydroxy-6-methoxy-2H-chromen-2-one] | –
20 | 195 µM | CC1(C)C=Cc2cc3ccc(=O)oc3cc2O1 [8,8-Dimethyl-8H-pyrano[3,2-g]chromen-2-one] | –
21 | – | COc1ccc(-n2nc3c4ccccc4n([C@@H]4O[C@H](COC(=O)c5ccccc5)[C@@H](OC(=O)c5ccccc5)[C@H]4OC(=O)c4ccccc4)cc-3c2=O)cc1 [Adenosine analogue] | IC50 [1]: 45 µM
22 | – | COc1cccc(C(=O)NC2C(O)[C@@H](COP(=O)([O-])OP(=O)(O)OC[C@H]3O[C@@H]([n+]4ccc(C(N)=O)cc4)C(O)C3O)O[C@H]2n2cnc3c(NCc4cccc5ccccc45)ncnc32)c1 (some centres undefined) [Adenosine analogue] | IC50 [1]: 0.1 µM
23 | – | C=CC(C)(C)c1cc2cc3c(cc2oc1=O)O[C@H](C(C)(C)O)C3 [Chalepin] | IC50 [3]: 55 µM
24 | – | COc1cccc(C(=O)NC2C(O)[C@@H](CO)O[C@H]2n2cnc3c(NCc4cccc5ccccc45)ncnc32)c1 (stereo partly drawn) [N-((2R,5R)-4-Hydroxy-5-hydroxymethyl-2-{6-[(naphthalen-1-ylmethyl)-amino]-purin-9-yl}-tetrahydro-furan-3-yl)-3-methoxy-benzamide] | IC50 [1]: 12 µM
25 | – | COc1cccc(C(=O)NC2C(O)[C@@H](COP(=O)(O)O)O[C@H]2n2cnc3c(NCc4cccc5ccccc45)ncnc32)c1 (stereo partly drawn) [Phosphoric acid mono-((2R,5R)-3-hydroxy-4-(3-methoxy-benzoylamino)-5-{6-[(naphthalen-1-ylmethyl)-amino]-purin-9-yl}-tetrahydro-furan-2-ylmethyl) ester] | IC50 [1]: 5 µM
26 | 209 µM | COc1ccc2ccc(=O)oc2c1CC=C(C)C [osthole] | –
27 | 617 µM | O=c1ccc2ccc(O)cc2o1 [umbelliferone] | –

Row | SMILES | IC50 [2] | other results
28 | COc1c2c(cc3oc(=O)ccc13)OCC2 | 347 µM | –
29 | CC(=O)Oc1ccc(-c2cc3cc(OC(C)=O)c(OC(C)=O)cc3oc2=O)cc1OC(C)=O [6,7-diacetoxy-3-[30,40-diacetoxyphenyl]-coumarin] | 17.8 µM | –
